{
  "source": "patent US8192962B2",
  "about": "“Processes for detecting toxic substances” (Daikin Industries, Ltd., priority 2001, dated 2012)",
  "test_system": "Unknown protein yeast genes",
  "test": "DNA chip mRNA expression in yeast, unknown protein yeast genes (Table 1)",
  "format": "cell-based, Saccharomyces cerevisiae S288C",
  "outline": "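Values are treated/untreated fluorescence ratios from a whole-genome yeast DNA chip hybridized over 12 hours at 65° C with Cy3- or Cy5-labelled cDNA from poly(A) mRNA. Log-phase S288C yeast in YPD at 25° C had received a single toxic chemical for two hours, dosed to slow growth without killing.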",
  "data": [
    {"smiles": "C=CC=O", "note": "[(14), acrolein]", "values": [
      {"measurement": "The level of expressed mRNA in the presence of chemical substance/The level of expressed mRNA in the absence of chemical substance", "setting": "yeast gene YKL195W, incubated two hours with chemical substance", "value": 1.6},
      {"measurement": "The level of expressed mRNA in the presence of chemical substance/The level of expressed mRNA in the absence of chemical substance", "setting": "yeast gene YKR091W, incubated two hours with chemical substance", "value": 1.9},
      {"measurement": "The level of expressed mRNA in the presence of chemical substance/The level of expressed mRNA in the absence of chemical substance", "setting": "yeast gene YLR054C, incubated two hours with chemical substance", "value": 1.1},
      {"measurement": "The level of expressed mRNA in the presence of chemical substance/The level of expressed mRNA in the absence of chemical substance", "setting": "yeast gene YLR149C, incubated two hours with chemical substance", "value": 1.2},
      {"measurement": "The level of expressed mRNA in the presence of chemical substance/The level of expressed mRNA in the absence of chemical substance", "setting": "yeast gene YLR152C, incubated two hours with chemical substance", "value": 1.2},
      {"measurement": "The level of expressed mRNA in the presence of chemical substance/The level of expressed mRNA in the absence of chemical substance", "setting": "yeast gene YLR194C, incubated two hours with chemical substance", "value": 1.2},
      {"measurement": "The level of expressed mRNA in the presence of chemical substance/The level of expressed mRNA in the absence of chemical substance", "setting": "yeast gene YLR297W", "value": 2.3},
      {"measurement": "The level of expressed mRNA in the presence of chemical substance/The level of expressed mRNA in the absence of chemical substance", "setting": "yeast gene YLR324W, incubated two hours with chemical substance", "value": 1.4},
      {"measurement": "The level of expressed mRNA in the presence of chemical substance/The level of expressed mRNA in the absence of chemical substance", "setting": "yeast gene YLR350W, incubated two hours with chemical substance", "value": 2.8},
      {"measurement": "The level of expressed mRNA in the presence of chemical substance/The level of expressed mRNA in the absence of chemical substance", "setting": "yeast gene YLR387C, incubated two hours with chemical substance", "value": 1.7},
      {"measurement": "The level of expressed mRNA in the presence of chemical substance/The level of expressed mRNA in the absence of chemical substance", "setting": "yeast gene YLR460C", "value": 3.5},
      {"measurement": "The level of expressed mRNA in the presence of chemical substance/The level of expressed mRNA in the absence of chemical substance", "setting": "yeast gene YML117W, incubated two hours with chemical substance", "value": 0.8},
      {"measurement": "The level of expressed mRNA in the presence of chemical substance/The level of expressed mRNA in the absence of chemical substance", "setting": "yeast gene YMR009W, incubated two hours with chemical substance", "value": 1.9},
      {"measurement": "The level of expressed mRNA in the presence of chemical substance/The level of expressed mRNA in the absence of chemical substance", "setting": "yeast gene YMR067C, incubated two hours with chemical substance", "value": 1.5},
      {"measurement": "The level of expressed mRNA in the presence of chemical substance/The level of expressed mRNA in the absence of chemical substance", "setting": "yeast gene YMR090W", "value": 6.5},
      {"measurement": "The level of expressed mRNA in the presence of chemical substance/The level of expressed mRNA in the absence of chemical substance", "setting": "yeast gene YMR095C, incubated two hours with chemical substance", "value": 2.2},
      {"measurement": "The level of expressed mRNA in the presence of chemical substance/The level of expressed mRNA in the absence of chemical substance", "setting": "yeast gene YMR097C, incubated two hours with chemical substance", "value": 2.1},
      {"measurement": "The level of expressed mRNA in the presence of chemical substance/The level of expressed mRNA in the absence of chemical substance", "setting": "yeast gene YMR102C, incubated two hours with chemical substance", "value": 0.7},
      {"measurement": "The level of expressed mRNA in the presence of chemical substance/The level of expressed mRNA in the absence of chemical substance", "setting": "yeast gene YMR107W, incubated two hours with chemical substance", "value": 8.1},
      {"measurement": "The level of expressed mRNA in the presence of chemical substance/The level of expressed mRNA in the absence of chemical substance", "setting": "yeast gene YMR180C, incubated two hours with chemical substance", "value": 1.7},
      {"measurement": "The level of expressed mRNA in the presence of chemical substance/The level of expressed mRNA in the absence of chemical substance", "setting": "yeast gene YMR184W, incubated two hours with chemical substance", "value": 1.5},
      {"measurement": "The level of expressed mRNA in the presence of chemical substance/The level of expressed mRNA in the absence of chemical substance", "setting": "yeast gene YMR191W, incubated two hours with chemical substance", "value": 1.5},
      {"measurement": "The level of expressed mRNA in the presence of chemical substance/The level of expressed mRNA in the absence of chemical substance", "setting": "yeast gene YMR295C, incubated two hours with chemical substance", "value": 1.3},
      {"measurement": "The level of expressed mRNA in the presence of chemical substance/The level of expressed mRNA in the absence of chemical substance", "setting": "yeast gene YMR316W, incubated two hours with chemical substance", "value": 1.3},
      {"measurement": "The level of expressed mRNA in the presence of chemical substance/The level of expressed mRNA in the absence of chemical substance", "setting": "yeast gene YNL044W, incubated two hours with chemical substance", "value": 1.2},
      {"measurement": "The level of expressed mRNA in the presence of chemical substance/The level of expressed mRNA in the absence of chemical substance", "setting": "yeast gene YNL074C, incubated two hours with chemical substance", "value": 0.6},
      {"measurement": "The level of expressed mRNA in the presence of chemical substance/The level of expressed mRNA in the absence of chemical substance", "setting": "yeast gene YNL092W, incubated two hours with chemical substance", "value": 1.2},
      {"measurement": "The level of expressed mRNA in the presence of chemical substance/The level of expressed mRNA in the absence of chemical substance", "setting": "yeast gene YNL115C, incubated two hours with chemical substance", "value": 1.0},
      {"measurement": "The level of expressed mRNA in the presence of chemical substance/The level of expressed mRNA in the absence of chemical substance", "setting": "yeast gene YNL156C, incubated two hours with chemical substance", "value": 1.4},
      {"measurement": "The level of expressed mRNA in the presence of chemical substance/The level of expressed mRNA in the absence of chemical substance", "setting": "yeast gene YNL234W, incubated two hours with chemical substance", "value": 1.5},
      {"measurement": "The level of expressed mRNA in the presence of chemical substance/The level of expressed mRNA in the absence of chemical substance", "setting": "yeast gene YNL281W, incubated two hours with chemical substance", "value": 1.2},
      {"measurement": "The level of expressed mRNA in the presence of chemical substance/The level of expressed mRNA in the absence of chemical substance", "setting": "yeast gene YNL305C, incubated two hours with chemical substance", "value": 1.3},
      {"measurement": "The level of expressed mRNA in the presence of chemical substance/The level of expressed mRNA in the absence of chemical substance", "setting": "yeast gene YNR068C, incubated two hours with chemical substance", "value": 1.8},
      {"measurement": "The level of expressed mRNA in the presence of chemical substance/The level of expressed mRNA in the absence of chemical substance", "setting": "yeast gene YOL032W, incubated two hours with chemical substance", "value": 1.3},
      {"measurement": "The level of expressed mRNA in the presence of chemical substance/The level of expressed mRNA in the absence of chemical substance", "setting": "yeast gene YOL036W, incubated two hours with chemical substance", "value": 1.0},
      {"measurement": "The level of expressed mRNA in the presence of chemical substance/The level of expressed mRNA in the absence of chemical substance", "setting": "yeast gene YOL047C, incubated two hours with chemical substance", "value": 1.2},
      {"measurement": "The level of expressed mRNA in the presence of chemical substance/The level of expressed mRNA in the absence of chemical substance", "setting": "yeast gene YOL071W, incubated two hours with chemical substance", "value": 2.5},
      {"measurement": "The level of expressed mRNA in the presence of chemical substance/The level of expressed mRNA in the absence of chemical substance", "setting": "yeast gene YOL082W, incubated two hours with chemical substance", "value": 1.4},
      {"measurement": "The level of expressed mRNA in the presence of chemical substance/The level of expressed mRNA in the absence of chemical substance", "setting": "yeast gene YOL083W, incubated two hours with chemical substance", "value": 1.4},
      {"measurement": "The level of expressed mRNA in the presence of chemical substance/The level of expressed mRNA in the absence of chemical substance", "setting": "yeast gene YOL117W, incubated two hours with chemical substance", "value": 1.7},
      {"measurement": "The level of expressed mRNA in the presence of chemical substance/The level of expressed mRNA in the absence of chemical substance", "setting": "yeast gene YOL131W, incubated two hours with chemical substance", "value": 2.3},
      {"measurement": "The level of expressed mRNA in the presence of chemical substance/The level of expressed mRNA in the absence of chemical substance", "setting": "yeast gene YOL150C", "value": 5.7},
      {"measurement": "The level of expressed mRNA in the presence of chemical substance/The level of expressed mRNA in the absence of chemical substance", "setting": "yeast gene YOL162W, incubated two hours with chemical substance", "value": 1.4},
      {"measurement": "The level of expressed mRNA in the presence of chemical substance/The level of expressed mRNA in the absence of chemical substance", "setting": "yeast gene YOR019W, incubated two hours with chemical substance", "value": 1.4},
      {"measurement": "The level of expressed mRNA in the presence of chemical substance/The level of expressed mRNA in the absence of chemical substance", "setting": "yeast gene YOR197W, incubated two hours with chemical substance", "value": 0.7},
      {"measurement": "The level of expressed mRNA in the presence of chemical substance/The level of expressed mRNA in the absence of chemical substance", "setting": "yeast gene YPL087W, incubated two hours with chemical substance", "value": 1.2},
      {"measurement": "The level of expressed mRNA in the presence of chemical substance/The level of expressed mRNA in the absence of chemical substance", "setting": "yeast gene YPL196W, incubated two hours with chemical substance", "value": 1.6},
      {"measurement": "The level of expressed mRNA in the presence of chemical substance/The level of expressed mRNA in the absence of chemical substance", "setting": "yeast gene YPL206C, incubated two hours with chemical substance", "value": 1.1},
      {"measurement": "The level of expressed mRNA in the presence of chemical substance/The level of expressed mRNA in the absence of chemical substance", "setting": "yeast gene YPL222W, incubated two hours with chemical substance", "value": 1.1},
      {"measurement": "The level of expressed mRNA in the presence of chemical substance/The level of expressed mRNA in the absence of chemical substance", "setting": "yeast gene YPR023C, incubated two hours with chemical substance", "value": 0.9},
      {"measurement": "The level of expressed mRNA in the presence of chemical substance/The level of expressed mRNA in the absence of chemical substance", "setting": "yeast gene YPR151C, incubated two hours with chemical substance", "value": 1.4}
    ]}
  ]
}
